Molecular target: RIPK2 enzyme (Homo sapiens (Human), UniProt O43353)
Experiment: RIPK2 inhibition assay, TR-FRET LanthaScreen Tracer 199 screening assay
Format: binding
Details: 5 nM RIPK2 enzyme, Tracer 199 at 50 nM, Eu-anti-His Antibody at 2 nM, 1 hour incubation
Procedure: All data was collected using a standard TR-FRET screening assay: LanthaScreen Tracer 199 at 50 nM, Eu-anti-His Antibody at 2 nM, 5 nM RIPK2 enzyme, and 1× Kinase Reaction Buffer. There was a 1 hour incubation prior to read. TR-FRET signal of the interaction (340Ex/665Em/615Em) was read at room temperature with standard setting. Background was subtracted of wells containing no enzyme. Percent inhibition was based on uninhibited controls log (inhibitor) vs. response. Variable slope equation was used with no constraints: Log Y=Bottom+(Top−Bottom)/(1+10^((Log IC50−X)*Hill Slope)).
The compound numbers correspond to the compound numbers above.

Chain of RIPK2 enzyme (O43353 whole entry): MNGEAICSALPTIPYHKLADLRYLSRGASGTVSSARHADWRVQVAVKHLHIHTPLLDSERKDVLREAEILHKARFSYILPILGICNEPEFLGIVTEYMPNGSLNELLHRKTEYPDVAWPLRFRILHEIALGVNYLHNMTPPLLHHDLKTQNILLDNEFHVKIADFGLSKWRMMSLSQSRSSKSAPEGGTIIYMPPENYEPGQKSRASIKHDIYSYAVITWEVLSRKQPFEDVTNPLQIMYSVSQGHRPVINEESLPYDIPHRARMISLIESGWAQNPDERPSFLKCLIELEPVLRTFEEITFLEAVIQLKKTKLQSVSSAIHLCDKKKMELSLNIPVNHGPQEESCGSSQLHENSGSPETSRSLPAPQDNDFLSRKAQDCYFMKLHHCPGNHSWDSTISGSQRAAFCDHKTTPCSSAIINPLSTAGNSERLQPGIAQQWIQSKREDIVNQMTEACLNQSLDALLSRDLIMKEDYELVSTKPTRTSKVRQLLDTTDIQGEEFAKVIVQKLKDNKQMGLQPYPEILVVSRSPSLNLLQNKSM

Row | IC50 | SMILES
1 | 20 to 50 nM | C[C@@H]1NCCC[C@@H]1c1cc2c(Nc3cc4ncsc4cc3F)ccnc2s1 [Example 51b]
2 | 10 to 20 nM | CCN1CCC=C(c2cc3c(Nc4cc5ncsc5cc4F)ccnc3s2)[C@H]1C [Example 52a, N-(2-(1-ethyl-2-methyl-1,2,5,6-tetrahydropyridin-3-yl)thieno[2,3-b]pyridin-4-yl)-6-fluorobenzo[d]thiazol-5-amine]
3 | 10 to 20 nM | CCN1CCC=C(c2cc3c(Nc4cc5ncsc5cc4F)ccnc3s2)[C@@H]1C [Example 52b, N-(2-(1-ethyl-2-methyl-1,2,5,6-tetrahydropyridin-3-yl)thieno[2,3-b]pyridin-4-yl)-6-fluorobenzo[d]thiazol-5-amine]
4 | ≤ 10 nM | CCN1CCC[C@@H](c2cc3c(Nc4cc5ncsc5cc4F)ccnc3s2)[C@H]1C [Example 53b, N-(2-((2R)-1-ethyl-2-methylpiperidin-3-yl)thieno[2,3-b]pyridin-4-yl)-6-fluorobenzo[d]thiazol-5-amine]
5 | 20 to 50 nM | CCN1CCC[C@H](c2cc3c(Nc4cc5ncsc5cc4F)ccnc3s2)[C@@H]1C [Example 54b, N-(2-(1-ethyl-2-methylpiperidin-3-yl)thieno[2,3-b]pyridin-4-yl)-6-fluorobenzo[d]thiazol-5-amine]
6 | ≤ 10 nM | C[C@H]1NCCC[C@@H]1c1cc2c(Nc3ccc4scnc4c3F)ccnc2s1 [Example 56a, 4-fluoro-N-(2-((2R,3S)-2-methyl-piperidin-3-yl)thieno[2,3-b]pyridin-4-yl)benzo[d]thiazol-5-amine]
7 | ≤ 10 nM | C[C@H]1NCCC[C@H]1c1cc2c(Nc3ccc4scnc4c3F)ccnc2s1 [Example 56b, 4-fluoro-N-(2-((2R,3R)-2-methyl-piperidin-3-yl)thieno[2,3-b]pyridin-4-yl)benzo[d]thiazol-5-amine]
8 | 10 to 20 nM | C[C@@H]1NCCC[C@H]1c1cc2c(Nc3ccc4scnc4c3F)ccnc2s1 [Example 57a, 4-fluoro-N-(2-((2S,3R)-2-methylpiperidin-3-yl)thieno-[2,3-b]pyridin-4-yl)benzo[d]thiazol-5-amine]
9 | ≤ 10 nM | C[C@@H]1NCCC[C@@H]1c1cc2c(Nc3ccc4scnc4c3F)ccnc2s1 [Example 57b, 4-fluoro-N-(2-((2S,3S)-2-methylpiperidin-3-yl)thieno-[2,3-b]pyridin-4-yl)benzo[d]thiazol-5-amine]
10 | ≤ 10 nM | C[C@@H]1[C@@H](c2cc3c(Nc4ccc5scnc5c4F)ccnc3s2)CCCN1C [Example 58, N-(2-((2R,3S)-1,2-dimethylpiperidin-3-yl)thieno[2,3-b]pyridin-4-yl)-4-fluorobenzo[d]thiazol-5-amine]
11 | ≤ 10 nM | C[C@H]1[C@H](c2cc3c(Nc4ccc5scnc5c4F)ccnc3s2)CCCN1C [Example 59, N-(2-((2S,3R)-1,2-dimethylpiperidin-3-yl)thieno[2,3-b]pyridin-4-yl)-4-fluorobenzo[d]thiazol-5-amine]
12 | ≤ 10 nM | C[C@H]1[C@@H](c2cc3c(Nc4ccc5scnc5c4F)ccnc3s2)CCCN1C [Example 61, N-(2-((2S,3S)-1,2-dimethylpiperidin-3-yl)thieno[2,3-b]pyridin-4-yl)-4-fluorobenzo[d]thiazol-5-amine]
13 | ≤ 10 nM | CCN1CCC[C@H](c2cc3c(Nc4ccc5scnc5c4F)ccnc3s2)[C@H]1C [Example 62, N-(2-((2R,3S)-1-ethyl-2-methylpiperidin-3-yl)thieno[2,3-b]pyridin-4-yl)-4-fluorobenzo[d]thiazol-5-amine]
14 | ≤ 10 nM | CCN1CCC[C@@H](c2cc3c(Nc4ccc5scnc5c4F)ccnc3s2)[C@@H]1C [Example 63, N-(2-((2S,3R)-1-ethyl-2-methylpiperidin-3-yl)thieno[2,3-b]pyridin-4-yl)-4-fluorobenzo[d]thiazol-5-amine]
15 | ≤ 10 nM | CCN1CCC[C@@H](c2cc3c(Nc4ccc5scnc5c4F)ccnc3s2)[C@H]1C [Example 64, N-(2-((2R,3R)-1-ethyl-2-methylpiperidin-3-yl)thieno[2,3-b]pyridin-4-yl)-4-fluorobenzo[d]thiazol-5-amine]
16 | ≤ 10 nM | CCN1CCC[C@H](c2cc3c(Nc4ccc5scnc5c4F)ccnc3s2)[C@@H]1C [Example 65, N-(2-((2S,3S)-1-ethyl-2-methylpiperidin-3-yl)thieno[2,3-b]pyridin-4-yl)-4-fluorobenzo[d]thiazol-5-amine]
17 | ≤ 10 nM | C[C@H]1NCCC=C1c1cc2c(Nc3c(F)cc4scnc4c3F)ccnc2s1 [Example 66a, (R)-4,6-difluoro-N-(2-(2-methyl-1,2,5,6-tetrahydropyridin-3-yl)thieno[2,3-b]pyridin-4-yl)benzo[d]thiazol-5-amine]
18 | ≤ 10 nM | C[C@@H]1NCCC=C1c1cc2c(Nc3c(F)cc4scnc4c3F)ccnc2s1 [Example 66b, (S)-4,6-difluoro-N-(2-(2-methyl-1,2,5,6-tetrahydropyridin-3-yl)thieno[2,3-b]pyridin-4-yl)-benzo[d]thiazol-5-amine]

Row | IC50 | SMILES
19 | ≤ 10 nM | C[C@H]1NCCC[C@@H]1c1cc2c(Nc3c(F)cc4scnc4c3F)ccnc2s1 [Example 67a, 4,6-difluoro-N-(2-((2R,3S)-2-methylpiperidin-3-yl)thieno[2,3-b]pyridin-4-yl)benzo[d]thiazol-5-amine]
20 | ≤ 10 nM | C[C@H]1NCCC[C@H]1c1cc2c(Nc3c(F)cc4scnc4c3F)ccnc2s1 [Example 67b, 4,6-difluoro-N-(2-((2R,3R)-2-methylpiperidin-3-yl)thieno[2,3-b]pyridin-4-yl)benzo[d]thiazol-5-amine]
21 | 10 to 20 nM | C[C@@H]1NCCC[C@H]1c1cc2c(Nc3c(F)cc4scnc4c3F)ccnc2s1 [Example 68a, 4,6-difluoro-N-(2-((2S,3R)-2-methylpiperidin-3-yl)thieno[2,3-b]pyridin-4-yl)benzo[d]thiazol-5-amine]
22 | ≤ 10 nM | C[C@@H]1NCCC[C@@H]1c1cc2c(Nc3c(F)cc4scnc4c3F)ccnc2s1 [Example 68b, 4,6-difluoro-N-(2-((2S,3S)-2-methylpiperidin-3-yl)thieno[2,3-b]pyridin-4-yl)benzo[d]thiazol-5-amine]
23 | ≤ 10 nM | C[C@@H]1C(c2cc3c(Nc4c(F)cc5scnc5c4F)ccnc3s2)=CCCN1C [Example 69, (R)—N-(2-(1,2-dimethyl-1,2,5,6-tetrahydropyridin-3-yl)thieno[2,3-b]pyridin-4-yl)-4,6-difluorobenzo[d]thiazol-5-amine]
24 | ≤ 10 nM | C[C@@H]1[C@H](c2cc3c(Nc4c(F)cc5scnc5c4F)ccnc3s2)CCCN1C [Example 70b, N-(2-((2R,3R)-1,2-dimethylpiperidin-3-yl)thieno[2,3-b]pyridin-4-yl)-4,6-difluorobenzo[d]-thiazol-5-amine]
25 | ≤ 10 nM | C[C@H]1[C@H](c2cc3c(Nc4c(F)cc5scnc5c4F)ccnc3s2)CCCN1C [Example 71a, N-(2-((2S,3R)-1,2-dimethylpiperidin-3-yl)thieno[2,3-b]pyridin-4-yl)-4,6-difluorobenzo[d]thiazol-5-amine]
26 | ≤ 10 nM | C[C@H]1[C@@H](c2cc3c(Nc4c(F)cc5scnc5c4F)ccnc3s2)CCCN1C [Example 71b, N-(2-((2S,3S)-1,2-dimethylpiperidin-3-yl)thieno[2,3-b]pyridin-4-yl)-4,6-difluorobenzo[d]thiazol-5-amine]
27 | ≤ 10 nM | CCN1CCC=C(c2cc3c(Nc4c(F)cc5scnc5c4F)ccnc3s2)[C@H]1C [Example 72a, (R)—N-(2-(1-ethyl-2-methyl-1,2,5,6-tetrahydropyridin-3-yl)thieno[2,3-b]-pyridin-4-yl)-4,6-difluorobenzo[d]thiazol-5-amine]
28 | ≤ 10 nM | CCN1CCC=C(c2cc3c(Nc4c(F)cc5scnc5c4F)ccnc3s2)[C@@H]1C [Example 72b, (S)—N-(2-(1-ethyl-2-methyl-1,2,5,6-tetrahydropyridin-3-yl)thieno[2,3-b]pyridin-4-yl)-4,6-difluorobenzo[d]thiazol-5-amine]
29 | ≤ 10 nM | CCN1CCC[C@@H](c2cc3c(Nc4c(F)cc5scnc5c4F)ccnc3s2)[C@H]1C [Example 73b, N-[2-((2R,3R)1-ethyl-2-methyl-3-piperidyl)thieno[2,3-b]pyridin-4-yl]-4,6-difluoro-1,3-benzothiazol-5-amine]
30 | ≤ 10 nM | CCN1CCC[C@H](c2cc3c(Nc4c(F)cc5scnc5c4F)ccnc3s2)[C@@H]1C [Example 74b, N-(2-((2S,3S)-1-ethyl-2-methylpiperidin-3-yl)thieno[2,3-b]pyridin-4-yl)-4,6-difluorobenzo[d]thiazol-5-amine]
31 | ≤ 10 nM | CC1NCCC1c1cc2c(Nc3cc4ncsc4cc3F)ccnc2s1 (centres unmarked) [Example 75, 6-fluoro-N-(2-(2-methylpyrrolidin-3-yl)thieno[2,3-b]pyridin-4-yl)benzo[d]thiazol-5-amine]
32 | 10 to 20 nM | CCN1CCC(c2cc3c(Nc4cc5ncsc5cc4F)ccnc3s2)C1C (centres unmarked) [Example 76, N-(2-(1-ethyl-2-methylpyrrolidin-3-yl)thieno[2,3-b]pyridin-4-yl)-6-fluorobenzo[d]thiazol-5-amine]
33 | 10 to 20 nM | CC1C(c2cc3c(Nc4cc5ncsc5cc4F)ccnc3s2)CCN1CCO (centres unmarked) [Example 77, 2-(3-(4-((6-fluorobenzo[d]thiazol-5-yl)amino)thieno[2,3-b]pyridin-2-yl)-2-methylpyrrolidin-1-yl)ethan-1-ol]
34 | ≤ 10 nM | CC1(C)NCCC1c1cc2c(Nc3cc4ncsc4cc3F)ccnc2s1 (centres unmarked) [Example 78a, N-(2-(2,2-dimethylpyrrolidin-3-yl)thieno[2,3-b]pyridin-4-yl)-6-fluorobenzo[d]thiazol-5-amine]
35 | 20 to 50 nM | CCN1CCC(c2cc3c(Nc4cc5ncsc5cc4F)ccnc3s2)C1(C)C (centres unmarked) [Example 79, N-(2-(1-ethyl-2,2-dimethylpyrrolidin-3-yl)thieno[2,3-b]pyridin-4-yl)-6-fluorobenzo[d]thiazol-5-amine]

— US11168093B2, “Thienopyridine inhibitors of RIPK2” (Celgene Corporation, priority 2018, dated 2021)
